# From patent publication US7102056B1, “Compositions and methods for plant transformation and regeneration” (The Regents of the University of California, priority 1997, dated 2006)
# Assays:
# [1] = system: Golden Promise immature embryos; assay: Callus quality on twelve callus-induction media (auxin types, copper); type: cell-based, barley
# Method: (§1) To examine the effects of different types of auxins and concentrations of copper on callus quality and regenerability in barley, twelve different media were tested, using methods essentially as described in Example 2 above.
# [2] = system: calli of Golden Promise; assay: Regenerability of calli from twelve callus-induction media (auxin types, copper); type: cell-based, barley
# Method: as §1
# [3] = system: Galena immature embryos; assay: Callus-induction frequency on callus-induction media (CIM); type: cell-based, barley (Hordeum vulgare L.); details: Galena half embryos on CIM; 2 to 3 weeks after initial culturing; means ± SD of three replicates
# Method: (§2) Immature embryos (about 1.5-2.5 mm in size) were taken from spikes approximately three months in age that were surface-sterilized in 20% (v/v) bleach (5.25% sodium hypochlorite) for 7 min. washed 5 min with sterile water three times, bisected longitudinally, and placed on CIM. Ten half-embryos were tested on CIM supplemented with each of the fourteen phytohormone combinations; each treatment had three replicates. (Whole embryos can also be used.) Callus-induction frequency was measured by counting numbers of half embryos undergoing callus induction under a light microscope 2 to 3 weeks after initial culturing.
# (§3) Immature zygotic embryos about 1.5 to 2.5 mm in size were dissected and isolated intact under a stereo dissecting microscope from seeds that were surface-sterilized for 10 min in 20% (v/v) bleach (5.25% sodium hypochlorite) followed by three washes in sterile water. The embryos were placed scutellum-side down on CIM.
# (§4) Six different CIMs were used to test callus-induction frequencies and callus quality. The CIMs had, respectively, different concentrations of: 2,4-D (1.0 and 2.5 mg/L), BAP (0.01, 0.1 and 0.5 mg/L), and cupric sulfate (CuSO4; 0.1 and 5.0 μM) as shown in Table 7.
# (§5) The initial callus-induction frequency was determined using CIM of different compositions. Ten immature embryos from the barley genotypes Golden Promise and Galena were transferred to each CIM. Each CIM contained the following levels of hormones and copper: D, 2.5 mg/L 2,4-D and 0.1 μM CuSO4; DC, 2.5 mg/L 2,4-D and 5.0 μM CuSO4; DB, 2.5 mg/L 2,4-D, 0.1 mg/L BAP, 0.1 μM CuSO4; DBC1, 2.5 mg/L 2,4-D, 0.01 mg/L BAP and 5.0 μM CuSO4; DBC2, 2.5 mg/L 2,4-D, 0.1 mg/L BAP and 5.0 μM CuSO4; DBC3, 1.0 mg/L 2,4-D, 0.5 mg/L BAP and 5.0 μM CuSO4. Callus quality was assessed microscopically and scored on a scale with ++++ designating highest quality and +designating lowest quality. Values were measured three weeks after initial callus induction and represent means of three replicates for each treatment. […] Tissue quality was poor on CIM containing BAP three weeks after induction but improved after two to three transfers on this medium. Only a fraction of scutellar tissues on Galena immature embryos formed callus, while most of the scutellar surface on Golden Promise immature embryos formed high-quality callus.
# [4] = system: Golden Promise immature embryos; assay: as above; type: cell-based, barley (Hordeum vulgare L.); details: Golden Promise half embryos on CIM; 2 to 3 weeks after initial culturing; means ± SD of three replicates
# Method: as §2, §3, §4, §5
# [5] = system: nontransgenic callus tissues of Golden Promise; assay: Regeneration via an intermediate-incubation step, nontransgenic callus; type: cell-based, barley; details: two-month-old callus of Golden Promise maintained on CIM containing the auxin alone
# Method: Callus induction was performed as described above using CIM with 2.5 mg/L of 2,4-D or dicamba (no cytokinin). After incubation for three weeks at 24±1° C. in the dark, callus was cut into small pieces (about 3 to 4 mm), then maintained on the same medium with subculturing at three-week intervals.
# Ten pieces of two-month-old nontransgenic calli grown on CIM supplemented with either 2,4-D or dicamba in the dark were transferred to RM either directly or following incubation on an IIM.
# Two different IIM were used, DBC2 and DBC3. DBC2 medium is CIM containing 2.5 mg/L 2,4-D, 0.1 mg/L BAP, and 5.0 μM copper (cupric sulfate). DBC3 medium is CIM containing 1.0 mg/L 2,4-D, 0.5 mg/L BAP, and 5.0 μM copper. After growing calli on these media for 3-4 weeks under dim light conditions (20 to 30 μE; 16 h light/8 h dark), the numbers of calli producing green sectors or green regenerative structures were counted. Green sectors and small green regenerative structures were then transferred to fresh RM and grown under higher light intensity (45-55 μE). After 3-4 weeks, the numbers of green shoots per callus piece were counted. […]
# [6] = system: green tissue of Golden Promise, Galena and Harrington; assay: Selection and regeneration of bombarded green tissues with selective agents; type: cell-based; details: bombarded barley green tissues under selection
# Method: The green regenerative tissues generated and maintained on one or two of these media, DBC2 (comprising 2.5 mg/L 2,4-D, 0.1 mg/L BAP and 5.0 μM CuSO4, Cho et al., 1998) or DBC3 (comprising 1.0 mg/L 2,4-D, 0.5 mg/L BAP and 5.0 μM CuSO4, Cho et al., 1998), were used directly as transformation targets. For bombardment, 3 to 4 mm pieces of green tissue of Golden Promise, Galena and Harrington, removed 3 to 4 months after initiation of the original culture, were osmotically treated on DBC2 or DBC3 medium and bombarded the same day with three different selection constructs, ubi-bar/ubi-uidA, ubi-nptII/ubi-uidA and act-hpt/ubi-uidA. […] Sixteen to 18 hr post-bombardment, green tissues were transferred without osmoticum or selective agent to dim light on DBC2 or DBC3 medium for Golden Promise and Harrington or DBC3 for Galena. Selection with all agents started […] post-bombardment to allow for proliferation of transformed cells in the absence of the cell death resulting from wounding or selection. At that time, tissue was broken into pieces (3-5 mm) and transferred to either DBC2 or DBC3 medium (depending on morphology) with 3 mg/L bialaphos (bar), 20-25 mg/L hygromycin B (hpt) or 30 mg/L G418 (nptII), depending on the construct used. Starting with the third round of selection, levels of selective agent were increased to 45 mg/L bialaphos, 25 mg/L hygromycin B or 40 mg/L G418. […]
Compound,induction of calli which regenerated green plants [2],Callus Induction Frequency (%) GAL [3],Callus Induction Frequency (%) GP [4],green shoots per callus piece [5],albino plants during regeneration of selected tissues [6],further results
O=C(O)Cc1c[nH]c2ccccc12 [IAA],Neither IAA nor NAA was optimal,–,–,–,–,callus quality [1]: poorer callus quality than the other auxins
"O=C(O)COc1ccc(Cl)cc1Cl [2,4-D, 2,4-dichlorophenoxyacetic acid]",–,~100%,~100%,0.35,–,–
C[C@H](NC(=O)[C@H](C)NC(=O)[C@@H](N)CCP(C)(=O)O)C(=O)O [bialaphos],–,–,–,–,no albino plants were observed,–
O=C(O)Cc1cccc2ccccc12 [NAA],Neither IAA nor NAA was optimal,–,–,–,–,–
COc1c(Cl)ccc(Cl)c1C(=O)O [dicamba],–,~100%,~100%,1.15,–,–
CN[C@H]1C[C@@H](N)[C@H](O)[C@@H](O[C@@H]2O[C@H](CO)[C@H](O)[C@@H]3OC4(O[C@H]23)O[C@H]([C@@H](N)CO)[C@H](O)[C@H](O)[C@H]4O)[C@@H]1O (some centres unmarked) [hygromycin B],–,–,–,–,frequently albino plants were observed,–
